system: HIV-1 (IIIB strain); assay: Anti-HIV cytoprotection assay (XTT), HIV-1 IIIB in CEM-SS cells; type: cell-based; conditions: Human immunodeficiency virus 1, IIIB, CEM-SS, CEM-SS cell line; read-out: Inhibitory activity (EC50) against HIV-1 (IIIB strain)
Source text: a) Inhibitory Activity of the Lymphocytropic Virus Strain HIV-1 (IIIB) in the CEM-SS Cell Line.
The evaluation was done by ImQuest BioSciences, Inc. (Frederick, Md., USA). CEM-SS cells [Foley G. E. et al. Continuous Culture of Human Lymphoblasts from Peripheral Blood of a Child with Acute Leukemia. Cancer 1965, 18, 522-529] obtained through the NIH AIDS Research and Reference Reagent Program (Manassas, Va., USA) were passaged in T-75 flasks prior to use cell culture medium consisting of RPMI1640 medium (Lonza; Walkersville, Md., USA) supplemented with 10% heat inactivated fetal bovine serum (Gibco; Grand Island, N.Y.), […] L-glutamine (Lonza), […] penicillin (Lonza) and […] streptomycin (Lonza) for antiviral analysis. The CEM-SS cells were kept in RPMI 140 medium supplemented with 10% heat inactivated bovine fetal serum, 2 mM glutamine, 100 U/ml penicillin, and 100 μg/ml streptomycin.
A lymphocytropic HIV-1 IIIB strain [Popovic, M. et al. Detection, isolation, and continuous production of cytopathic retroviruses (HTLV-III) from patients with AIDS and pre-AIDS. Science. 1984, 224 (4648), 497-500] was chosen for a virus to be analyzed. The virus was obtained through the NIH AIDS Research and Reference Reagents Program and grown in CEM-SS cells to produce a stock virus pool. A pre-titrated aliquot of the virus was removed from the freezer (−80° C.) and allowed to slowly thaw to room temperature in a biological safety cabinet. The virus was diluted in a tissue culture medium so that the amount of virus added in 50 μl per well was sufficient to kill 85 to 95% of the cells 6 days after infection. HIV-1 IIIB was grown and titrated in CEM-SS cells. The inhibitory effect of […] was evaluated in CEM-SS cells as described earlier [Nara, P. L. at al. Simple, rapid, quantitative, syncytium-forming microassay for the detection of human immunodeficiency virus neutralizing antibody. AIDS Res. Hum. Retroviruses 1987, 3, 283-302.] in microtiter plate anti-HIV assays to quantitatively assess the ability of a compound to inhibit HIV-induced cell death. Quantification was carried out using 2,3-bis-(2-methoxy-4-nitro-5-[…])-(2H)-tetrazolium-5-carboxanilide (XTT) tetrazolium, which is metabolized to a stained formazan product through viable […] The compounds given in Table 1 were dissolved at 10 μM in DMSO and stored at −20° C.
Test materials were evaluated using antiviral assays in triplicate in concentrations of 30 and 10 nM. The compounds shown in table 1 were dissolved at 10 μM in DMSO and stored at −20° C. […] Sixty nanomolar concentrations of each compound (2 times that of the test concentration in the well) were prepared by diluting 10 μM DMSO stock 1:100 in cell culture medium (10 μl of compound added to 990 μl of the medium) followed by 1:10 dilution (10 μl of the compound was added to 90 μl of the medium), then 6 μl was added to 994 μl of the medium; […] μl was added to a 96-well microtiter plate in triplicate to ensure efficacy and one colorimetric well. Twenty nanomolar concentrations of each compound (twice as much as the test concentration in the well) were prepared by diluting 10 μM DMSO with the original 1:100 in cell culture medium (10 μl of the compound added to 990 μl of the medium) followed by diluting […] (10 μl of the compound was added to 900 μl of the medium), then 20 μl was added to 980 μl of the medium; 100 μl was added to a 96-well microtiter plate in triplicate to ensure efficacy and one colorimetric well.
Azidothymidine (AZT) was purchased from Sigma Aldrich (USA) and evaluated as a positive control compound in an antiviral assay using a six-concentration reaction curve on each assay plate.
Test compounds were initially evaluated for HIV-1 IIIB strain in CEM-SS cells at test concentrations of 30 and 10 nM. […]

| SMILES | EC50 |
| --- | --- |
| C[C@H]1CO[C@@H]2Cn3cc(C(=O)NCc4cn5ncsc5n4)c(=O)c(O)c3C(=O)N12 [Compound 1.1.29, (3S,11aR)-6-hydroxy-N-(imidazo[2,1-b][1,3,4]thiadiazol-6-ylmethyl)-3-methyl-5,7-dioxo-2,3,5,7,11,11a-hexahydro[1,3]oxazolo[3,2-a]pyrido[1,2-d]pyrazine-8-carboxamide] | > 30 nM |
| Cc1nonc1CNC(=O)c1cn2c(c(O)c1=O)C(=O)N1[C@@H](C)CO[C@@H]1C2 [Compound 1.1.12, (3S,11aR)-6-hydroxy-3-methyl-N-[(4-methyl-1,2,5-oxadiazol-3-yl)methyl]-5,7-dioxo-2,3,5,7,11,11a-hexahydro[1,3]oxazolo[3,2-a]pyrido[1,2-d]pyrazine-8-carboxamide] | 10 to 30 nM |
| C[C@H]1CO[C@@H]2Cn3cc(C(=O)NCc4nc5ccc(Cl)cc5o4)c(=O)c(O)c3C(=O)N12 [Compound 1.1.39, (3S,11aR)-6-hydroxy-3-methyl-N-[(6-chloro-1,3-benzoxazol-2-yl)methyl]-5,7-dioxo-2,3,5,7,11,11a-hexahydro[1,3]oxazolo[3,2-a]pyrido[1,2-d]pyrazine-8-carboxamide] | 2 to 10 nM |
| O=C(NCc1c(F)cc(F)nc1F)c1cn2c(c(O)c1=O)C(=O)N1[C@H]3CC[C@H](C3)O[C@@H]1C2 [Compound 1.3.2, (2R,5S,13aR)-8-hydroxy-N-[(2,4,6-trifluoropyridin-3-yl)methyl]-7,9-dioxo-2,3,4,5,7,9,13,13a-octahydro-2,5-methanopyrido[1′,2′:4,5]pyrazino[2,1-b][1,3]oxazepine-10-carboxamide] | 2 to 10 nM |
| Cc1nccc(CNC(=O)c2cn3c(c(O)c2=O)C(=O)N2[C@@H](C)CO[C@@H]2C3)n1 [Compound 1.1.26, (3S,11aR)-6-hydroxy-3-methyl-N-[(2-methylpyrimidin-4-yl)methyl]-5,7-dioxo-2,3,5,7,11,11a-hexahydro[1,3]oxazolo[3,2-a]pyrido[1,2-d]pyrazine-8-carboxamide] | 10 to 30 nM |
| C[C@H]1CO[C@@H]2Cn3cc(C(=O)NCc4n[nH]c5c4CCCCC5)c(=O)c(O)c3C(=O)N12 [Compound 1.1.62, (3S,11aR)-6-hydroxy-N-(1,4,5,6,7,8-hexahydrocyclohepta[c]pyrazol-3-ylmethyl)-3-methyl-5,7-dioxo-2,3,5,7,11,11a-hexahydro[1,3]oxazolo[3,2-a]pyrido[1,2-d]pyrazine-8-carboxamide] | 2 to 10 nM |
| C[C@H]1CO[C@@H]2Cn3cc(C(=O)NCc4ccc5c(ccn5C)c4)c(=O)c(O)c3C(=O)N12 [Compound 1.1.33, (3S,11aR)-6-hydroxy-3-methyl-N-[(1-methyl-1H-indol-5-yl)methyl]-5,7-dioxo-2,3,5,7,11,11a-hexahydro[1,3]oxazolo[3,2-a]pyrido[1,2-d]pyrazine-8-carboxamide] | 10 to 30 nM |
| C[C@H]1CO[C@@H]2Cn3cc(C(=O)NCc4nc5cc(F)ccc5[nH]4)c(=O)c(O)c3C(=O)N12 [Compound 1.1.41, (3S,11aR)-6-hydroxy-3-methyl-N-[(5-ϕTopo-1H-benzimidazol-2-yl)methyl]-5,7-dioxo-2,3,5,7,11,11a-hexahydro[1,3]oxazolo[3,2-a]pyrido[1,2-d]pyrazine-8-carboxamide] | 10 to 30 nM |
| Cc1n[nH]c(C)c1CNC(=O)c1cn2c(c(O)c1=O)C(=O)N1[C@@H](C)CO[C@@H]1C2 [Compound 1.1.4, (3S,11aR)-6-hydroxy-N-[(3,5-dimethyl-1H-pyrazol-4-yl)methyl]-3-methyl-5,7-dioxo-2,3,5,7,11,11a-hexahydro[1,3]oxazolo[3,2-a]pyrido[1,2-d]pyrazine-8-carboxamide] | ~8 nM |
| C[C@H]1CO[C@@H]2Cn3cc(C(=O)NCc4cccc5ncccc45)c(=O)c(O)c3C(=O)N12 [Compound 1.1.52, (3S,11aR)-6-hydroxy-3-methyl-N-(quinolin-5-ylmethyl)-5,7-dioxo-2,3,5,7,11,11a-hexahydro[1,3]oxazolo[3,2-a]pyrido[1,2-d]pyrazine-8-carboxamide] | ~10 nM |
| CC(C)n1c(CNC(=O)c2cn3c(c(O)c2=O)C(=O)N2[C@@H](C)CO[C@@H]2C3)nc2ccccc21 [Compound 1.1.44, (3S,11aR)-6-hydroxy-3-methyl-N-{[1-isopropyl-1H-benzimidazol-2-yl]methyl}-5,7-dioxo-2,3,5,7,11,11a-hexahydro[1,3]oxazolo[3,2-a]pyrido[1,2-d]pyrazine-8-carboxamide] | > 30 nM |
| C[C@H]1CO[C@@H]2Cn3cc(C(=O)NCc4nnc5ccc(Cl)nn45)c(=O)c(O)c3C(=O)N12 [Compound 1.1.60, (3S,11aR)-6-hydroxy-3-methyl-N-[(6-chloro[1,2,4]triazolo[4,3-b]pyridazin-3-yl)methyl]-5,7-dioxo-2,3,5,7,11,11a-hexahydro[1,3]oxazolo[3,2-a]pyrido[1,2-d]pyrazine-8-carboxamide] | 10 to 30 nM |
| C[C@H]1CO[C@@H]2Cn3cc(C(=O)NCc4cnc5cnccn45)c(=O)c(O)c3C(=O)N12 [Compound 1.1.59, (3S,11aR)-6-hydroxy-N-(imidazo[1,2-a]pyrazin-3-ylmethyl)-3-methyl-5,7-dioxo-2,3,5,7,11,11a-hexahydro[1,3]oxazolo[3,2-a]pyrido[1,2-d]pyrazine-8-carboxamide] | > 30 nM |
| C[C@H]1CO[C@@H]2Cn3cc(C(=O)NCc4cc5c(cc4Br)OCO5)c(=O)c(O)c3C(=O)N12 [Compound 1.1.35, (3S,11aR)-N-[(6-bromo-1,3-benzodioxol-5-yl)methyl]-6-hydroxy-3-methyl-5,7-dioxo-2,3,5,7,11,11a-hexahydro[1,3]oxazolo[3,2-a]pyrido[1,2-d]pyrazine-8-carboxamide] | < 2 nM |
| C[C@H]1CO[C@@H]2Cn3cc(C(=O)NCc4ccc5[nH]c(=O)[nH]c5c4)c(=O)c(O)c3C(=O)N12 [Compound 1.1.46, (3S,11aR)-6-hydroxy-N-[(2-oxo-2,3-dihydro-1H-benzimidazol-5-yl)methyl]-3-methyl-5,7-dioxo-2,3,5,7,11,11a-hexahydro[1,3]oxazolo[3,2-a]pyrido[1,2-d]pyrazine-8-carboxamide] | > 30 nM |

From patent publication US20230020329A1, “Annelated 9-hydroxy-1,8-dioxo-1,3,4,8-tetrahydro-2H-pyrido[1,2-a]pyrazine-7-carboxamides as HIV integrase inhibitors, methods of preparation and application thereof” (priority 2019, published 2023)
